Assay results from ChEMBL document CHEMBL3217431, “Synthesis, in silico screening and bioevaluation of dispiro-cycloalkanones as antitubercular and mycobacterial NAD+-dependent DNA ligase inhibitors” (Medchemcomm, 2011).
Converted amounts (≈) assume the structure as drawn.

Tested on: Escherichia coli
Experiment: In vivo antibacterial activity against Escherichia coli GR501 harboring lig251 temperature-sensitive mutant gene transformed with plasmid encoding Mycobacterium tuberculosis NAD+ DNA ligase assessed as growth inhibition after 20 hrs by microdilution assay
Format: functional
Conditions: GR501, 20 h

SMILES	MIC [µM]
O=C1C2(CCCC13CC3c1ccc(F)cc1)CC2c1ccc(F)cc1 (configuration not stated)	44.3 (≈ 15 µg/mL)
O=C1C2(CCCC13CC3c1ccc(Br)cc1)CC2c1ccc(Br)cc1 (configuration not stated)	52.1 (≈ 24 µg/mL)
